From US20240269139A1, “COMPOUNDS FOR TARGETED PROTEIN DEGRADATION OF KINASES” (DANA-FARBER CANCER INSTITUTE, INC., priority 2020, published 2024)
Read-outs that look alike come from different tables or passages of the source.

How the values were obtained:
Type in all cases: cell-based
[1] = tested on: protein kinases (human kinome); conditions: for logFC MAPK8 (P45983-4) / logFC: direction down; for logFC MAPK8: MAPK8 P45983-4; for logFC: PTK2B (Q14289-2); for logFC PTK2B: accession Q14289-2; for kinases the bifunctional compound degrades: as stated for the structure in the embodiments; for Kinase hits: kinases significantly downregulated vs DMSO (fold change cutoff −1.25, P-value<0.01), ≤8 h, 0.1-5 μM degrader, 7 cell lines; for Total no. kinase hits: number of degraded kinases per library compound
[2] = target: protein kinases (human kinome) (Homo sapiens, UniProt P51451); conditions: for logFC BLK: BLK (P51451), direction down, experiment wp168; for logFC of BLK (P51451): Experiment wp168, down
Sequence of protein kinases (human kinome) (Homo sapiens, UniProt P51451) (P51451 whole entry): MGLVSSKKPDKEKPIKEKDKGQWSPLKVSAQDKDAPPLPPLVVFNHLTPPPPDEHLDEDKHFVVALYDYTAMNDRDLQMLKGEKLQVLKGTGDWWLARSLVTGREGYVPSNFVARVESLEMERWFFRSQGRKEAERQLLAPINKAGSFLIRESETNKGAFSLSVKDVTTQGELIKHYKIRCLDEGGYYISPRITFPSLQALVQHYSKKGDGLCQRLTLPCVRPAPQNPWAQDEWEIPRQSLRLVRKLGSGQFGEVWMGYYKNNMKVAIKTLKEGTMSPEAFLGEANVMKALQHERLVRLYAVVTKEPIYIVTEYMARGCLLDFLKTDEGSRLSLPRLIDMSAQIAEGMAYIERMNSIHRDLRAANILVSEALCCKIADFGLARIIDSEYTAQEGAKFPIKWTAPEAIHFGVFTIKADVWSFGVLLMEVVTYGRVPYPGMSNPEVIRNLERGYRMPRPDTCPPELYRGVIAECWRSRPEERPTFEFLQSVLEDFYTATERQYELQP

[3] = target: protein kinases (human kinome) (Homo sapiens, UniProt P16591); conditions: for logFC of FER (P16591-1): Experiment wp168, down; for logFC of FER: FER P16591-1, experiment wp168
Sequence of protein kinases (human kinome) (Homo sapiens, UniProt P16591) (P16591 whole entry): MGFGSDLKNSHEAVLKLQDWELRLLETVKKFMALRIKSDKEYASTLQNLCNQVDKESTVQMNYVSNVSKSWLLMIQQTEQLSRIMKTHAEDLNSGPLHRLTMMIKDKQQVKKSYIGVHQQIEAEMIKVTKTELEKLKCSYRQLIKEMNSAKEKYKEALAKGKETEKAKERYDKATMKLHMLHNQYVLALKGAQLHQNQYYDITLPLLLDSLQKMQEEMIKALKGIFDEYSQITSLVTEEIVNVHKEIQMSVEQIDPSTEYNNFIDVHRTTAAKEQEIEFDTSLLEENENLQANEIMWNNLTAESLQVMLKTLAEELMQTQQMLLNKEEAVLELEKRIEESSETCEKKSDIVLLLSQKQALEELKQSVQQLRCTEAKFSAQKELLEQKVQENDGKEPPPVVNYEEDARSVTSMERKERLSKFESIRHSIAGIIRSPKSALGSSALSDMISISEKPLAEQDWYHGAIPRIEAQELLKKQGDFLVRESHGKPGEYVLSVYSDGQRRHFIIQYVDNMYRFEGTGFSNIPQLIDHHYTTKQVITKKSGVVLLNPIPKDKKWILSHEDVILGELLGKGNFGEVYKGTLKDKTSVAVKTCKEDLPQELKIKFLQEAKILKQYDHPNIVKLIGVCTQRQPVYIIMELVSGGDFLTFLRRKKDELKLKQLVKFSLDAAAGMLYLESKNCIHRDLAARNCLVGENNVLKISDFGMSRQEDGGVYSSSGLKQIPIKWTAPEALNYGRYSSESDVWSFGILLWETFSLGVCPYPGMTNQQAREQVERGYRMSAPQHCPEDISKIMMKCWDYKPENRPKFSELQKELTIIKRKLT

[4] = target: protein kinases (human kinome) (Homo sapiens, UniProt P53671); conditions: for logFC LIMK2: LIMK2 (P53671), down; for logFC of LIMK2: LIMK2 P53671
Sequence of protein kinases (human kinome) (Homo sapiens, UniProt P53671) (P53671 whole entry): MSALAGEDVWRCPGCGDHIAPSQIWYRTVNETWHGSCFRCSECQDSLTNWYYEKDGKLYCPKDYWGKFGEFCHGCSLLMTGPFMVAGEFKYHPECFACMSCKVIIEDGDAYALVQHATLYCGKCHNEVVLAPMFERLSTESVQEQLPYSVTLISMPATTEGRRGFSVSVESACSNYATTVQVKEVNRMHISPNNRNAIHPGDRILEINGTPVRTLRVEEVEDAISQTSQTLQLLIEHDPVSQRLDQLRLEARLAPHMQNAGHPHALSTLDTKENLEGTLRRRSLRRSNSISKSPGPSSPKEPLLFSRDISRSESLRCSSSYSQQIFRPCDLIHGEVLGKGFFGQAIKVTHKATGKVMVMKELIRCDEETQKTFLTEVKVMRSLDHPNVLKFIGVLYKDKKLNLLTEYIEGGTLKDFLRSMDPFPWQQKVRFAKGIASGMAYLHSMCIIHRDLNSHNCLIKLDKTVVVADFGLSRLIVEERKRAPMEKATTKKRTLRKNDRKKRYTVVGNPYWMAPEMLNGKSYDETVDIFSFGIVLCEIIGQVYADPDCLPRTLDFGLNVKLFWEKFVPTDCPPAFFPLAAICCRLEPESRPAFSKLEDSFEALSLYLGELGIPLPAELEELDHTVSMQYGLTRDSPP

[5] = MAPK14, accession Q16539-2, experiment wp168, direction of change down
[6] = MAPK14 Q16539-2, experiment wp168
[7] = experiment wp168, direction of change down

Structure (SMILES) | logFC MAP3K20 (Q9NYL2-2) ([1]; Experiment wp168) | logFC MAPK8 (P45983-4) ([1]; Experiment wp168) | logFC MAPK8 ([1]; experiment wp168) | logFC MAPK14 [1, 5] | logFC MAPK14 [1, 6] | logFC ([1]; experiment wp168) | logFC PTK2B [1, 7] | kinases the bifunctional compound degrades [1] | logFC MAP3K20 (Q9NYL2-2) ([1]; experiment wp168) | Kinase hits [1] | Total no. kinase hits [1] | logFC BLK [2] | logFC of BLK (P51451) [2] | logFC of FER (P16591-1) [3] | logFC of FER [3] | further results
Cc1ccc(NC(=O)c2cccc(C(F)(F)F)c2)cc1N1Cc2cnc(Nc3ccc(N4CCN(CCCOc5cccc6c5C(=O)N(C5CCC(=O)NC5=O)C6=O)CC4)nc3)nc2N(C)C1=O (stereo not drawn) [DB0662] | −1.006 | −0.8961 | −0.8961 | −1.34 | −1.34 | −3.245 | −3.245 | ABL1, ABL2, BLK, BUB1, CDK11B, CDK4, CSK, EPHB6, FER. FYN, GAK, LCK, LIMK1, MAP3K1, MAP3K11, MAP3K20, MAP4K1, MAPK14, MAPK8, MAPK9, MAPKAPK2, MKNK2, PAK4, PDIK1L, PTK2B, RPS6KA1, RPS6KA3, SIK2, SRC, TNK2, UHMK1, ULK1, and YES1 | −1.006 | ABL1, ABL2, BLK, BUB1, CDK11B, CDK4, CSK, EPHB6, FER, FYN, GAK, LCK, LIMK1, MAP3K1, MAP3K11, MAP3K20, MAP4K1, MAPK14, MAPK8, MAPK9, MAPKAPK2, MKNK2, PAK4, PDIK1L, PTK2B, RPS6KA1, RPS6KA3, SIK2, SRC, TNK2, UHMK1, ULK1,YES1 | 33 | −1.652 | −1.652 | −1.481 | −1.481 | logFC FYN ([1]; Accession P06241-2, experiment wp168): −0.5636; logFC FYN ([1]; FYN P06241-2, experiment wp168): −0.5636
Cc1ccc(NC(=O)c2cccc(C(F)(F)F)c2)cc1N1Cc2cnc(Nc3ccc(N4CCN(CCCCC(=O)N[C@H](C(=O)N5C[C@H](O)C[C@H]5C(=O)N[C@@H](C)c5ccc(-c6scnc6C)cc5)C(C)(C)C)CC4)nc3)nc2N(C)C1=O [DB1113] | −0.9693 | −0.3642 | −0.3642 | −1.588 | −1.588 | −1.705 | −1.705 | ABL1, ABL2, BLK, CDK11B, CDK4, CSK, EPHA3, FER, GAK, LIMK1, MAP3K20, MAP4K1, MAP4K2, MAP4K3, MAP4K5, MAPK14, MAPK7, MAPK8, MAPK9, MAPKAPK2, MAPKAPK3, NLK, PDIK1L, PTK2B, RIPK1, RPS6KA1, RPS6KA3, SIK2, SIK3, STK35, TNK2, and ULK1 | −0.9693 | ABL1, ABL2, BLK, CDK11B, CDK4, CSK, EPHA3, FER, GAK, LIMK1, MAP3K20, MAP4K1, MAP4K2, MAP4K3, MAP4K5, MAPK14, MAPK7, MAPK8, MAPK9, MAPKAPK2, MAPKAPK3, NLK, PDIK1L, PTK2B, RIPK1, RPS6KA1, RPS6KA3, SIK2, SIK3, STK35, TNK2, ULK1 | 31 | −1.32 | −1.32 | −1.118 | −1.118 | 
Cc1ncsc1-c1ccc([C@H](C)NC(=O)[C@@H]2C[C@@H](O)CN2C(=O)[C@@H](NC(=O)CCCCCN2CCN(c3ccc(Nc4ncc5scc(-c6cccc(NS(C)(=O)=O)c6)c5n4)cc3)CC2)C(C)(C)C)cc1 [RSS0680, (2S,4R)-1-((S)-3,3-Dimethyl-2-(6-(4-(4-((7-(3-(methylsulfonamido)phenyl)thieno[3,2-d]pyrimidin-2-yl)amino)phenyl)piperazin-1-yl)hexanamido)butanoyl)-4-hydroxy-N—((S)-1-(4-(4-methylthiazol-5yl)phenyl)ethyl)pyrrolidine-2-carboxamide] |  |  |  |  |  |  |  | AAK1, CDK1, CDK16, CDK2, CDK4, CDK6, EIF2AK4, GAK. LATS1, LIMK2, MAPK6, MAPKAPK5, MARK2, MARK4, MKNK2, NEK9, RPS6KB1, SIK2, SNRK, STK17A, STK17B, STK35, and WEE1 |  | AAK1, CDK1, CDK16, CDK2, CDKA, CDK6, EIF2AK4, GAK, LATS1, LIMK2, MAPK6, MAPKAPK5, MARK2, MARK4, MKNK2, NEK9, RPS6KB1, SIK2, SNRK, STK17A, STK17B. STK35, WEE1 | 26 |  |  |  |  | logFC CDK16 (Q00536-2) ([1]; experiment wp080): −1.002; logFC CDK16 (Q00536-2) ([1]; experiment wp117): −0.9383; logFC HK1 ([1]; protein HK1 (P19367-3), experiment wp080, down): −0.3696; logFC LIMK2 ([4]; experiment wp080): −0.8809; logFC LIMK2 ([4]; experiment wp117): −1.109; logFC of LIMK2 ([4]; experiment wp080): −0.8809; logFC of LIMK2 ([4]; experiment wp117): −1.109
